Laboratory results reported in patent US20240408071A1, “NOVEL COMBINATION OF SEROTONIN RECEPTOR (5-HTR2B) ANTAGONIST AND AN IMMUNOMODULATOR AND CHEMOTHERAPEUTIC DRUGS FOR INHIBITION OF CANCER” (NATIONAL CENTRE FOR CELL SCIENCE, priority 2021, published 2024).

Columns and labels:
4T1-Luc2 cells = experiment: 4T1-Luc2 breast cancer model, tumor volume; type: in vivo, BALB/c mice; conditions: RS-127445 2 mg/kg/day + paclitaxel 2 mg/kg/alternate days; 4T1-luc2 model (FIG. 16A)
Protocol: FIG. 7 depicts that antagonizing the 5-HTR2B in mice inhibits breast and colon tumor growth: (A) MC38 colon cancer cells were injected subcutaneously into the right flank of C57BL/6 mice. […] Tumor volumes were measured and plotted. (B) MC38 colon cancer cells were injected subcutaneously into the right flank of C57BL/6 mice. After seven days when tumors became palpable, one group was treated with 5-HTR7 antagonist SB-269970 (n=6 mice; 3 mg/kg/day) or left untreated (n=6 mice). Tumor volume was measured and plotted. (C) After seven days of the setting of tumor growth, one group was treated with a serotonin transporter blocker (SSRI) sertraline hydrochloride (n=6 mice; 15 mg/kg/week) or left untreated (n=6 mice). Tumor volume was measured and plotted. (D) C57BL/6 mice were given subcutaneously injected MC38 cells. After seven days of tumor growth, one group of mice was treated with different doses of 5-HTR2B antagonist SB-215505 (n=6). Tumor volume was measured and plotted. […] Tumor volume was measured and plotted. […] Tumor growth was measured and plotted. […] Tumour volumes were measured and plotted. […] Tumour volumes were measured and plotted. […]
FIG. 16 depicts the effect of the 5-HTR2B antagonist on the FDA-approved chemotherapy drug treatment: (A) BALB/C mice were inoculated with 4T1-Luc2 cells in the mammary fat pad. […] Tumor volume was measured and plotted. […]

5-HTR2B receptor subtype = 5-HTR2B receptor subtype (Homo sapiens, UniProt P41595); conditions: more specific to 5-HTR2B; cited from earlier work
Sequence of 5-HTR2B receptor subtype (P41595 whole entry): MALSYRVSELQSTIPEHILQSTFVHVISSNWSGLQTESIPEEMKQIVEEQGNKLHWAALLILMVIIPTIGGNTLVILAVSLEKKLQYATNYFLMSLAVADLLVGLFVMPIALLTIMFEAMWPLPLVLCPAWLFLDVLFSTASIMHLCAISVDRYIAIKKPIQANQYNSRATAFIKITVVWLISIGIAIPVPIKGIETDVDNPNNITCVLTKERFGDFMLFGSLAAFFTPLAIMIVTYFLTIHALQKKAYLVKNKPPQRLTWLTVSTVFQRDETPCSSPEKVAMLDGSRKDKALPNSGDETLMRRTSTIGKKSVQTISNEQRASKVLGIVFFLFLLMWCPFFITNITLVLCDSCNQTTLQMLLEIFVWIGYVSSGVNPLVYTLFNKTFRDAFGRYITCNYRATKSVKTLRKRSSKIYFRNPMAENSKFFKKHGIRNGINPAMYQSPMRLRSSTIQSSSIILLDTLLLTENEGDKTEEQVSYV

What does the source list for CC(C)c1cc(-c2ccc(F)c3ccccc23)nc(N)n1 [RS-127445]?
tumor growth, combination with paclitaxel (4T1-Luc2 cells): much better response by reducing tumor growth than any of them alone; specificity to the 5-HTR2B receptor subtype (5-HTR2B receptor subtype): ~1000 times
